The source of these data is patent publication US20150133524A1, “PYRUVATE DEHYROGENASE KINASES AS THERAEUTIC TARGETS FOR CANCER AND ISCHEMIC DISEASES” (THE JOHNS HOPKINS UNIVERSITY, priority 2004, published 2015).

In data set [1] the test system is Hif1a−/− MEFs. Nature of the data set: Cell proliferation assay (viable cell count) of Hif1a−/− MEFs.
In another data set the test system is PDK1. As to the kind of experiment: Immunoblot of PDK1 protein expression in P493-6 cells. It counts as cell-based, human. The following applies: for PDK1 expression: P493-6 cells after electroporation with 100 nM siRNA, FIG. 4A. Background: In western blotting, separated proteins are transferred to a membrane and probed.
The next data set relates to P493-6 cells. As to the kind of experiment: Growth curves of P493-6 cells electroporated with siRNA. It is filed as cell-based, human. The following applies: 100 nM siRNA electroporated; hypoxia (0.1% O2); versus scrambled control siRNA; FIG. 4B. On the procedure: siRNA targeting human PDK1 was designed and purchased from Dharmacon Research Inc (Lafayette, Colo.). 3×10^6 P493-6 cells were electroporated (1500 uF and 240 volts) with 100 nM of PDK1 siRNA (5′-CUACAUGAGUCGCAUUUCAdTdT-3′) (SEQ ID NO: 1). or scrambled control siRNA (5′-CACGCUCGGUCAAAAGGUUdTdT-3′) (SEQ ID NO: 7). in a 4 mm cuvette (BTX) using a Gene Pulser Xcell (Bio-Rad, Hercules, Calif.). The following day, 5×10^5 viable cells were subjected to hypoxic exposure (0.1% O2). At indicated times, viable cells were counted for growth curve, and the cellular proteins were harvested for Western blot analysis.

For data set [2], the system named is Hif1a−/− MEFs.

Read-outs that look alike come from different tables or passages of the source.

`CO/C(=C/C(N)=O)[C@H](C)[C@H](/C=C/c1csc(-c2csc([C@@H](C)/C=C/C=C/C(C)C)n2)n1)OC` [myxothiazol]: the “toxicity to normoxic and hypoxic Hif1a−/− MEFs” value with Hif1a−/− MEFs [1] (both normoxic and hypoxic cells) is recorded as “toxic”.
In the case of `C=C(C)[C@H]1Cc2c(ccc3c2O[C@@H]2COc4cc(OC)c(OC)cc4[C@@H]2C3=O)O1` [Rotenone, rotenone], in the data set with Hif1a−/− MEFs [1] (0.1 μM rotenone, hypoxic (0.5% O2), FIG. 3D), the “rescue (growth) of hypoxic Hif1a−/− mouse embryo fibroblasts” value is recorded as “able to rescue”. Also, the “proliferation of normoxic Hif1a−/− MEFs” value with Hif1a−/− MEFs [1] (0.1 μM rotenone, normoxic (20% O2), FIG. 3D) is “inhibited proliferation”.
Turning to “5′-CUACAUGAGUCGCAUUUCAdTdT-3′ (dTdT overhang, complementary strand not cited, chemistry not fully specified) [PDK1 siRNA, siRNA targeting human PDK1, designed and purchased from Dharmacon]”, the PDK1 expression result in the data set with PDK1 is “reduced”. Further, the “growth of P493-6 cells in hypoxia” value with P493-6 cells was “impaired”.
As to antimycin A, the “toxicity to normoxic and hypoxic Hif1a−/− MEFs” value in the data set with Hif1a−/− MEFs [2] is listed as “toxic”.
In the case of `[Cl-].[Cl-].[Co+2]` [CoCl2], the PDK1 levels result with PDK1 is given as “increased”.
On to “5′-CACGCUCGGUCAAAAGGUUdTdT-3′ (dTdT overhang, complementary strand not cited, chemistry not fully specified) [scrambled control siRNA]”, for which the PDK1 expression result in the data set on PDK1 was “did not reduce PDK1 expression”.
